pIC50: −log10 of the molar value.
Each compound was assayed against ROR gamma ligand-binding domain (hRORg) (Homo sapiens (Human), UniProt P51449) (assay: GAL4-RORγ transactivation (luciferase reporter, HG5LN HeLa line)). Details: 18 hours incubation.
Assay type: cell-based
Excerpt: GAL4-RORγ Transactivation
The RORγ transactivation model was developed from the line HG5LN, which is a HeLa line that stably expresses a luciferase reporter gene controlled by a pentamer of the GAL4 recognition domain of yeast and of a β-globin promoter. The HG5LN line was stably transfected by the DNA-binding domain (DBD) of GAL4 fused to the ROR gamma ligand-binding domain (LBD). Molecules that inhibit the ROR gamma constitutive activity reduce the luciferase expression, thus leading to a reduction in the emitted luminescence.
The cells are seeded in 384-well plates (5000 cells in 45 μL/well of culture medium containing 10% fetal calf serum) and incubated for 4 hours at 37° C., 5% CO2. 5 μL of the test molecules (compounds described in the tables described above) are then added to each well and the plates are incubated for 18 hours at a temperature of 37° C. under 5% of CO2. 20 μL of luciferase substrate (Promega) are added to each well and the luminescence emitted is read by a microplate reader.
The luminescence units (“RLU”) are normalized by positive controls (“POS” containing a saturated concentration of benzenesulfonamide, N-(2,2,2-trifluoroethyl)-N-[4-[2,2,2-trifluoro-1-hydroxy-1-(trifluoromethyl)ethyl]phenyl]) and negative controls (“NEG” containing DMSO): % inhibition=((RLU−NEG)*100)/(POS−NEG). The IC50 values are calculated from a 4-parameter logistic model using the XLFit software (IDBS).

Chain of ROR gamma ligand-binding domain (hRORg) (P51449 269-508): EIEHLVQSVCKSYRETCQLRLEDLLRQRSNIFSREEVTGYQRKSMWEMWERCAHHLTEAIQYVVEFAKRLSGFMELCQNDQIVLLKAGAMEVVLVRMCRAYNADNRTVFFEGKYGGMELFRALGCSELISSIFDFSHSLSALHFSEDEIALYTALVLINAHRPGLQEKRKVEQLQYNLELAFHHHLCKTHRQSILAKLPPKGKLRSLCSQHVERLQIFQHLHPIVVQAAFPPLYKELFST

Row | SMILES | pIC50
1 | CCc1ccc(N(CC(C)C)S(=O)(=O)c2ccc(NC3CCS(=O)(=O)CC3)c(S(C)(=N)=O)c2)cc1 (stereo not drawn) [compound 83, 4-((1,1-dioxidotetrahydro-2H-thiopyran-4-yl)amino)-N-(4-ethylphenyl)-N-isobutyl-3-(S-methylsulfonimidoyl)benzenesulfonamide] | < 6.00
2 | CCc1ccc(N(CC(C)C)S(=O)(=O)c2ccc(OCC3(C)COC3)c(S(C)(=N)=O)c2)cc1 (stereo not drawn) [compound 34, N-(4-ethylphenyl)-N-isobutyl-4-((3-methyloxetan-3-yl)methoxy)-3-(S-methylsulfonimidoyl)benzenesulfonamide] | < 6.00
3 | CCc1ccc(N(CC(C)C)S(=O)(=O)c2ccc(NCc3ccnc(OC)c3)c(S(C)(=N)=O)c2)cc1 (stereo not drawn) [compound 127, N-(4-ethylphenyl)-N-isobutyl-4-(((2-methoxypyridin-4-yl)methyl)amino)-3-(S-methylsulfonimidoyl)benzenesulfonamide] | 6.00 to 7.00
4 | CCc1ccc(N(CC(C)C)S(=O)(=O)c2ccc(NCC3CCNC(=O)C3)c(S(C)(=N)=O)c2)cc1 (stereo not drawn) [compound 96, 4-N-(4-ethylphenyl)-N-isobutyl-3-(S-methylsulfonimidoyl)-4-(((2-oxopiperidin-4-yl)methyl)amino)benzenesulfonamide] | < 6.00
5 | CCc1ccc(N(CC(C)C)S(=O)(=O)c2ccc(OCc3ccncc3)c(S(C)(=N)=O)c2)cc1 (stereo not drawn) [compound 39, N-(4-ethylphenyl)-N-isobutyl-3-(S-methylsulfonimidoyl)-4-(pyridin-4-ylmethoxy)benzenesulfonamide] | < 6.00
6 | CCc1ccc(N(CC(C)C)S(=O)(=O)c2ccc(NCC3COC3)c(S(C)(=N)=O)c2)cc1 (stereo not drawn) [compound 54, N-(4-ethylphenyl)-N-isobutyl-3-(S-methylsulfonimidoyl)-4-((oxetan-3-ylmethyl)amino)benzenesulfonamide] | 6.00 to 7.00
7 | CCc1ccc(N(CC(C)C)S(=O)(=O)c2ccc(OCC3CCN(S(C)(=O)=O)CC3)c(S(C)(=N)=O)c2)cc1 (stereo not drawn) [compound 51] | < 6.00
8 | CCc1ccc(N(CC(C)C)S(=O)(=O)c2ccc(N3CC4(CN(C(=O)OC(C)(C)C)C4)C3)c(S(C)(=N)=O)c2)cc1 (stereo not drawn) [compound 110, tert-butyl 6-(4-(N-(4-ethylphenyl)-N-isobutylsulfamoyl)-2-(S-methylsulfonimidoyl)phenyl)-2,6-diazaspiro[3.3]heptane-2-carboxylate] | < 6.00
9 | CCc1ccc(N(CC(C)C)S(=O)(=O)c2ccc(NCc3c(C)noc3C)c(S(C)(=N)=O)c2)cc1 (stereo not drawn) [compound 97, 4-(((3,5-dimethylisoxazol-4-yl)methyl)amino)-N-(4-ethylphenyl)-N-isobutyl-3-(S-methylsulfonimidoyl)benzenesulfonamide] | 6.00 to 7.00
10 | CCc1ccc(N(CC(C)C)S(=O)(=O)c2ccc(N3CC4(CN(C(C)=O)C4)C3)c(S(C)(=N)=O)c2)cc1 (stereo not drawn) [compound 122, 4-(6-acetyl-2,6-diazaspiro[3.3]heptan-2-yl)-N-(4-ethylphenyl)-N-isobutyl-3-(S-methylsulfonimidoyl)benzenesulfonamide] | < 6.00
11 | CCc1ccc(N(CC(C)C)S(=O)(=O)c2ccc(NCC3CCOCC3)c(S(N)(=O)=O)c2)cc1 [compound 67, 4-[(tetrahydropyran-4-ylmethyl)amino]benzene-1,3-disulfonic acid 3-amide 1-[(4-ethylphenyl)isobutylamide]] | 6.00 to 7.00
12 | CCc1ccc(N(CC(C)C)S(=O)(=O)c2ccc3c(c2)[S+]([O-])C(C)(C)N3CC2CCOCC2)cc1 (stereo not drawn) [compound 74, 2,2-dimethyl-1-oxo-3-(tetrahydropyran-4-ylmethyl)-2,3-dihydro-1H-1λ^4-benzothiazole-6-sulfonic acid (4-ethylphenyl)isobutylamide] | 6.00 to 7.00
13 | CCc1ccc(N(CC(C)C)S(=O)(=O)c2ccc(NCC3CCS(=O)(=O)CC3)c(S(C)(=N)=O)c2)cc1 (stereo not drawn) [compound 57, 4-(((1,1-dioxidotetrahydro-2H-thiopyran-4-yl)methyl)amino)-N-(4-ethylphenyl)-N-isobutyl-3-(S-methylsulfonimidoyl)benzenesulfonamide] | < 6.00
14 | CCc1ccc(N(CC(C)C)S(=O)(=O)c2ccc(NCc3nn[nH]n3)c(S(C)(=N)=O)c2)cc1 (stereo not drawn) [compound 118, 4-(((2H-tetrazol-5-yl)methyl)amino)-N-(4-ethylphenyl)-N-isobutyl-3-(S-methylsulfonimidoyl)benzenesulfonamide] | < 6.00
15 | CCc1ccc(N(CC(C)C)S(=O)(=O)c2ccc(NCC3CCC(=O)NC3)c(S(C)(=N)=O)c2)cc1 (stereo not drawn) [compound 58, N-(4-ethylphenyl)-N-isobutyl-3-(S-methylsulfonimidoyl)-4-(((6-oxopiperidin-3-yl)methyl)amino)benzenesulfonamide] | < 6.00
16 | CCc1ccc(N(CC(C)C)S(=O)(=O)c2ccc3c(c2)NC(=O)CS3)cc1 [compound 10, 3-oxo-3,4-dihydro-2H-benzo[1,4]thiazine-6-sulfonic acid (4-ethylphenyl)isobutylamide] | < 6.00
17 | CCc1ccc(N(CC(C)C)S(=O)(=O)c2ccc(N3CC4CC3CO4)c(S(C)(=N)=O)c2)cc1 [compound 117, 4-((1R,4R)-2-oxa-5-azabicyclo[2.2.1]heptan-5-yl)-N-(4-ethylphenyl)-N-isobutyl-3-(S-methylsulfonimidoyl)benzenesulfonamide] | 6.00 to 7.00
18 | CCc1ccc(N(CC(C)C)S(=O)(=O)c2ccc(NCC3CCN(C(C)=O)C3)c(S(C)(=N)=O)c2)cc1 (stereo not drawn) [compound 100, 4-(((1-acetylpyrrolidin-3-yl)methyl)amino)-N-(4-ethylphenyl)-N-isobutyl-3-(S-methylsulfonimidoyl)benzenesulfonamide] | < 6.00
19 | CCc1ccc(N(CC(C)C)S(=O)(=O)c2ccc3c(c2)sc(=O)n3CC2CCOCC2)cc1 [compound 72] | 6.00 to 7.00
20 | CCc1ccc(N(CC(C)C)S(=O)(=O)c2ccc(OCC3CCOCC3)c(SC)c2)cc1 [compound 25, N-(4-ethylphenyl)-N-isobutyl-3-methylsulfanyl-4-(tetrahydropyran-4-ylmethoxy)benzenesulfonamide] | 6.00 to 7.00
21 | CCc1ccc(N(CC(C)C)S(=O)(=O)c2ccc(NCc3ccnc(C)c3)c(S(C)(=N)=O)c2)cc1 (stereo not drawn) [compound 90, N-(4-ethylphenyl)-N-isobutyl-4-(((2-methylpyridin-4-yl)methyl)amino)-3-(S-methylsulfonimidoyl)benzenesulfonamide] | < 6.00
22 | CCc1ccc(N(CC(C)C)S(=O)(=O)c2ccc(OCC3CCOCC3)c([S+]([O-])CC)c2)cc1 (stereo not drawn) [compound 22, ethanesulfinyl-N-(4-ethylphenyl)-N-isobutyl-4-(tetrahydropyran-4-ylmethoxy)benzenesulfonamide] | 6.00 to 7.00
23 | CCc1ccc(N(CC(C)C)S(=O)(=O)c2ccc(NCC3CN(C(=O)OC)C3)c(S(C)(=N)=O)c2)cc1 (stereo not drawn) [compound 89, methyl 3-(((4-(N-(4-ethylphenyl)-N-isobutylsulfamoyl)-2-(S-methylsulfonimidoyl)phenyl)amino)methyl)azetidine-1-carboxylate] | < 6.00
24 | CCc1ccc(N(CC(C)C)S(=O)(=O)c2ccc3c(c2)S(=N)(=O)CN3CC2CCOCC2)cc1 (stereo not drawn) [compound 76, 1-imino-1-oxo-3-(tetrahydropyran-4-ylmethyl)-2,3-dihydro-1H-1λ^6-benzothiazole-6-sulfonic acid (4-ethylphenyl)isobutylamide] | < 6.00
25 | CCc1ccc(N(CC(C)C)S(=O)(=O)c2ccc(N3CC4(COC4)C3)c(S(C)(=N)=O)c2)cc1 (stereo not drawn) [compound 111, N-(4-ethylphenyl)-N-isobutyl-3-(S-methylsulfonimidoyl)-4-(2-oxa-6-azaspiro[3.3]heptan-6-yl)benzenesulfonamide] | > 7.00
26 | CCc1ccc(N(CC(C)C)S(=O)(=O)c2ccc(NCC3CNC(=O)C3)c(S(C)(=N)=O)c2)cc1 (stereo not drawn) [compound 59, N-(4-ethylphenyl)-N-isobutyl-3-(S-methylsulfonimidoyl)-4-(((5-oxopyrrolidin-3-yl)methyl)amino)benzenesulfonamide] | 6.00 to 7.00
27 | CCc1ccc(N(CC(C)C)S(=O)(=O)c2ccc(NCC3CCN(C(C)=O)CC3)c(S(C)(=N)=O)c2)cc1 (stereo not drawn) [compound 84, 4-(((1-acetylpiperidin-4-yl)methyl)amino)-N-(4-ethylphenyl)-N-isobutyl-3-(S-methylsulfonimidoyl)benzenesulfonamide] | < 6.00
28 | CCc1ccc(N(CC(C)C)S(=O)(=O)c2ccc(OC3CCN(C(=O)OC(C)(C)C)CC3)c(S(C)(=N)=O)c2)cc1 (stereo not drawn) [compound 33, tert-butyl 4-(4-(N-(4-ethylphenyl)-N-isobutylsulfamoyl)-2-(S-methylsulfonimidoyl)phenoxy)piperidine-1-carboxylate] | < 6.00
29 | CCc1ccc(N(CC(C)C)S(=O)(=O)c2ccc(SCC3CCOCC3)c(C(=O)OC)c2)cc1 [compound 17, methyl 5-[(4-ethylphenyl)isobutylsulfamoyl]-2-(tetrahydropyran-4-ylmethylsulfanyl)benzoate] | < 6.00
30 | CCc1ccc(N(CC(C)C)S(=O)(=O)c2ccc(NC3CCC(=O)NC3)c(S(C)(=N)=O)c2)cc1 (stereo not drawn) [compound 85, N-(4-ethylphenyl)-N-isobutyl-3-(S-methylsulfonimidoyl)-4-((6-oxopiperidin-3-yl)amino)benzenesulfonamide] | < 6.00
